Measurements reported in patent US11597724B2, “Herbicidally active 3-phenylisoxazoline-5-carboxamides of tetrahydro and dihydrofuran carboxylic acids and esters” (Bayer Aktiengesellschaft, priority 2017, dated 2023).

Experiments:
Format in all cases: in vivo
[1] = system: Alopecurus myosuroides; test: Pre-emergence herbicidal activity against ALOMY; details: dosage 80 g/ha, scored visually after about 3 weeks vs untreated controls (100% = plants have died, 0% = like control plants); for pest or weed control at 80 g/ha: Alopecurus myosuroides, 504 h
Description: (§1) 1. Pre-Emergence Herbicidal Action and Crop Plant Compatibility Seeds of monocotyledonous and dicotyledonous weed plants and crop plants are placed in plastic or wood fiber pots and covered with soil. The compounds of the invention, formulated in the form of wettable powders (WP) or as emulsion concentrates (EC), are then applied onto the surface of the covering soil as aqueous suspension or emulsion with addition of 0.5% additive at a water application rate of 600 l/ha (converted). After the treatment, the pots are placed in a greenhouse and kept under good growth conditions for the trial plants. After about 3 weeks, the effect of the preparations is scored visually in comparison with untreated controls as percentages. For example, 100% activity=the plants have died, 0% activity=like control plants. ABUTH: Abutilon theophrasti ALOMY: Alopecurus myosuroides

[2] = system: Setaria viridis; test: Pre-emergence herbicidal activity against SETVI; details: dosage 80 g/ha; for pest or weed control at 80 g/ha: Setaria viridis, 504 h
Description: as §1, with “POLCO: Polygonum convolvulus SETVI: Setaria viridis” for “ABUTH: Abutilon theophrasti ALOMY: Alopecurus myosuroides”

[3] = system: Polygonum convolvulus; test: Pre-emergence herbicidal activity against POLCO; details: dosage 80 g/ha; for pest or weed control at 80 g/ha: Fallopia convolvulus, 504 h
Description: as §1, with “POLCO: Polygonum convolvulus SETVI: Setaria viridis” for “ABUTH: Abutilon theophrasti ALOMY: Alopecurus myosuroides”

[4] = system: Echinochloa crus-galli; test: Post-emergence herbicidal activity against ECHCG; details: dosage 320 g/ha, rated about 3 weeks after treatment; for pest or weed control at 320 g/ha: Echinochloa crus-galli, 504 h
Method in brief: (§2)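 Greenhouse pot plants sprayed post-emergence at one-leaf stage (2-3 weeks after sowing) with WP or EC formulations, 0.5% additive, 600 l/ha water. Visual rating about 3 weeks later versus untreated controls: 100% = plants dead, 0% = like control.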

[5] = system: Lolium rigidum; test: Post-emergence herbicidal activity against LOLRI; details: dosage 320 g/ha, rated about 3 weeks after treatment; for pest or weed control at 320 g/ha: Lolium rigidum, 504 h
Method in brief: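 Greenhouse-grown plants sprayed post-emergence at the one-leaf stage, 2 to 3 weeks after sowing, with WP or EC formulations plus 0.5% additive at 600 l/ha water. Activity rated visually after about 3 weeks versus untreated controls (100% = plants dead, 0% = like control).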

[6] = system: Setaria viridis; test: Post-emergence herbicidal activity against SETVI; details: dosage 320 g/ha, rated about 3 weeks after treatment; for pest or weed control at 320 g/ha: Setaria viridis, 504 h
Method in brief: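 Greenhouse weeds in sandy loam were sprayed at the one-leaf stage, 2–3 weeks after sowing, with WP or EC formulations plus 0.5% additive at 600 l/ha water. About 3 weeks later, damage was rated visually against untreated controls, where 100% means plants dead and 0% means like control.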

[7] = system: Abutilon theophrasti; test: Post-emergence herbicidal activity against ABUTH; details: dosage 320 g/ha, rated about 3 weeks after treatment; for pest or weed control at 320 g/ha: Abutilon theophrasti, 504 h
Method in brief: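 Greenhouse-grown plants treated at one-leaf stage, 2 to 3 weeks after sowing, with WP or EC formulations sprayed as aqueous suspension/emulsion plus 0.5% additive at 600 l/ha. Activity rated visually about 3 weeks later versus untreated controls (100% = plants dead, 0% = like control).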

[8] = system: Viola tricolor; test: Post-emergence herbicidal activity against VIOTR; details: dosage 320 g/ha, rated about 3 weeks after treatment; for pest or weed control at 320 g/ha: Viola tricolor, 504 h
Method in brief: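 Greenhouse plants in sandy loam treated at one-leaf stage, 2 to 3 weeks after sowing, by spraying WP or EC formulations with 0.5% additive at 600 l/ha water. Activity rated visually after about 3 weeks versus untreated controls, 100% = plants dead, 0% = like control.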

[9] = system: Hordeum murinum; test: Post-emergence herbicidal activity against HORMU; details: dosage 320 g/ha; for pest or weed control at 320 g/ha: Hordeum murinum, 504 h
Method in brief: as §2

| Structure (SMILES) | pest or weed control at 80 g/ha [1] [%] | pest or weed control at 80 g/ha [2] [%] | pest or weed control at 80 g/ha [3] [%] | pest or weed control at 320 g/ha [4] [%] | pest or weed control at 320 g/ha [5] [%] | pest or weed control at 320 g/ha [6] [%] | pest or weed control at 320 g/ha [7] [%] | pest or weed control at 320 g/ha [8] [%] | pest or weed control at 320 g/ha [9] [%] | Pre-emergence herbicidal activity against ALOMY in % [1] [%] | Pre-emergence herbicidal activity against SETVI in % [2] [%] | Pre-emergence herbicidal activity against POLCO in % [3] [%] | Post-emergence herbicidal activity against ECHCG in % [4] [%] | Post-emergence herbicidal activity against LOLRI in % [5] [%] | Post-emergence herbicidal activity against SETVI in % [6] [%] | Post-emergence herbicidal activity against ABUTH in % [7] [%] | Post-emergence herbicidal activity against VIOTR in % [8] [%] | Post-emergence herbicidal activity against HORMU in % [9] [%] |
| --- | --- | --- | --- | --- | --- | --- | --- | --- | --- | --- | --- | --- | --- | --- | --- | --- | --- | --- |
| C=C[C@]1(C(=O)N[C@H]2CO[C@@H](C(=O)OC)C2)CC(c2cc(F)cc(F)c2)=NO1 (mixture of isomers) [I-10, methyl cis-4-[[(5S)-3-(3,5-difluorophenyl)-5-vinyl-4H-isoxazole-5-carbonyl]amino]tetrahydrofuran-2-carboxylate] | 100 | 100 | 100 | 100 | 100 | 90 | 90 | 80 | 100 |  |  |  |  |  |  |  |  |  |
| C=C[C@]1(C(=O)N[C@H]2CO[C@@H](C(=O)OCC)C2)CC(c2cc(F)cc(F)c2)=NO1 (mixture of isomers) [I-35, ethyl cis-4-[[(5S)-3-(3,5-difluorophenyl)-5-vinyl-4H-isoxazole-5-carbonyl]amino]tetrahydrofuran-2-carboxylate] | 100 | 100 | 100 | 100 | 100 | 90 | 80 | 80 | 100 |  |  |  |  |  |  |  |  |  |
| C=C[C@]1(C(=O)N[C@H]2CO[C@@H](C(=O)OC(C)C)C2)CC(c2cc(F)cc(F)c2)=NO1 (mixture of isomers) [I-36, isopropyl cis-4-[[(5S)-3-(3,5-difluorophenyl)-5-vinyl-4H-isoxazole-5-carbonyl]amino]tetrahydrofuran-2-carboxylate] | 100 | 100 | 100 | 90 | 90 | 80 | 90 | 90 | 90 |  |  |  |  |  |  |  |  |  |
| C=C[C@]1(C(=O)N[C@H]2CO[C@@H](C(=O)OCc3ccccc3)C2)CC(c2cc(F)cc(F)c2)=NO1 (mixture of isomers) [I-37, benzyl cis-4-[[(5S)-3-(3,5-difluorophenyl)-5-vinyl-4H-isoxazole-5-carbonyl]amino]tetrahydrofuran-2-carboxylate] | 100 | 100 | 100 | 90 | 90 | 80 | 80 | 80 | 80 |  |  |  |  |  |  |  |  |  |
| C=C[C@]1(C(=O)N[C@H]2CO[C@@H](C(=O)OC(C)(C)C)C2)CC(c2cc(F)cc(F)c2)=NO1 (mixture of isomers) [I-38, tert-butyl cis-4-[[(5S)-3-(3,5-difluorophenyl)-5-vinyl-4H-isoxazole-5-carbonyl]amino]tetrahydrofuran-2-carboxylate] | 100 | 100 | 100 | 90 | 90 | 100 | 80 | 80 | 90 |  |  |  |  |  |  |  |  |  |
| CC1(C(=O)NC2COC(C(=O)O)C2)CC(c2cc(F)cc(F)c2)=NO1 (mixture of isomers) [I-41] |  |  |  |  |  |  |  |  |  | 100 | 100 | 90 | 100 | 100 | 90 | 80 | 80 | 100 |
| CC(C)(C)OC(=O)C1CC(NC(=O)C2(C)CC(c3cc(F)cc(F)c3)=NO2)CO1 (mixture of isomers) [I-42] |  |  |  |  |  |  |  |  |  | 100 | 100 | 100 | 100 | 100 | 90 | 80 | 90 | 100 |
| CCOC(=O)C1CC(NC(=O)C2(C)CC(c3cc(F)cc(F)c3)=NO2)CO1 (mixture of isomers) [I-43] |  |  |  |  |  |  |  |  |  | 100 | 100 | 100 | 100 | 100 | 80 | 80 | 90 | 100 |
| CC1(C(=O)NC2COC(C(=O)OCc3ccccc3)C2)CC(c2cc(F)cc(F)c2)=NO1 (mixture of isomers) [I-45] |  |  |  |  |  |  |  |  |  | 100 | 100 | 100 | 100 | 100 | 90 | 80 | 90 | 100 |
| COC(=O)C1CC(NC(=O)C2(C)CC(c3cc(F)cc(F)c3)=NO2)CO1 (mixture of isomers) [I-48] |  |  |  |  |  |  |  |  |  | 100 | 100 | 100 | 90 | 90 | 80 | 80 | 80 | 90 |
| CC1(C(=O)N[C@H]2CO[C@@H](C(=O)OCc3ccccc3)C2)CC(c2cccc(F)c2)=NO1 (mixture of isomers) [I-34, benzyl cis-4-[[(5RS)-3-(3-fluorophenyl)-5-methyl-4H-isoxazole-5-carbonyl]amino]tetrahydrofuran-2-carboxylate] | 100 | 90 | 90 | 90 | 90 | 90 | 80 |  | 100 |  |  |  |  |  |  |  |  |  |
| C=C[C@]1(C(=O)N[C@H]2CO[C@@H](C(=O)OC)C2)CC(c2cc(F)cc(F)c2)=NO1 (single isomer, unassigned) [I-11] |  |  |  | 90 | 100 | 90 | 90 | 90 | 100 | 100 | 100 | 100 |  |  |  |  |  |  |
